Patent US7767659B2, “Synthesis of naturally occurring ecteinascidins and related compounds” (Pharma Mar, S.A., priority 2002, dated 2010)
Where two headings read alike, the source gives them in different places.

Tests used:
LoVo = assay: cells; conditions: for GI50: read-out: GI50 LOVO; for CC50: read-out: LC50 LOVO; for IC (TGI): read-out: TGI LOVO
Method in brief: (§1)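 Colorimetric SRB read (490 nm) on triplicate wells after 48 h at 37 °C, 5% CO2. Dose range 10 to 10^−8 μg/ml; 5×10^3 cells/well pre-attached 18 h.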

A-549 = assay: cells; conditions: for GI50: read-out: GI50 A549; for CC50: read-out: LC50 A549; for IC (TGI): read-out: TGI A549
Method in brief: as §1

HT-29 = assay: cells; conditions: for GI50: read-out: GI50 HT29; for CC50: read-out: LC50 HT29; for IC (TGI): read-out: TGI HT29
Method in brief: as §1

LoVo-Dox = assay: Inhibition of cells growth by colorimetric assay (SRB); conditions: for GI50: read-out: GI50 LOVO-DOX; for CC50: read-out: LC50 LOVO-DOX; for IC (TGI): read-out: TGI LOVO-DOX
Method in brief: as §1

HeLa = assay: as above; conditions: for GI50: read-out: GI50 HELA; for CC50: read-out: LC50 HELA; for IC (TGI): read-out: TGI HELA
Method in brief: as §1

HeLa-APL = assay: as above; conditions: for GI50: read-out: GI50 HELA-APL; for CC50: read-out: LC50 HELA-APL; for IC (TGI): read-out: TGI HELA-APL
Method in brief: as §1

SK-MEL-28 = assay: as above; conditions: for GI50: read-out: GI50 MEL-28; for CC50: read-out: LC50 MEL-28; for IC (TGI): read-out: TGI MEL-28
Method in brief: as §1

IGROV-1 = assay: as above; conditions: for GI50: read-out: GI50 IGROV; for CC50: read-out: LC50 IGROV; for IC (TGI): read-out: TGI IGROV
Method in brief: as §1

LNCaP = assay: as above; conditions: for GI50: read-out: GI50 LNCAP; for CC50: read-out: LC50 LNCAP; for IC (TGI): read-out: TGI LNCAP
Method in brief: as §1

PANC-1 = assay: as above; conditions: for GI50: read-out: GI50 PANC-1; for CC50: read-out: LC50 PANC-1; for IC (TGI): read-out: TGI PANC-1
Method in brief: as §1

DU-145 = assay: as above; conditions: for GI50: read-out: GI50 DU145; for CC50: read-out: LC50 DU145; for IC (TGI): read-out: TGI DU145
Method in brief: as §1

K-562 = assay: as above; conditions: for GI50: read-out: GI50 K562; for CC50: read-out: LC50 K562; for IC (TGI): read-out: TGI K562
Method in brief: as §1

SK-BR-3 = assay: as above; conditions: for GI50: read-out: GI50 SK-BR3; for CC50: read-out: LC50 SK-BR3; for IC (TGI): read-out: TGI SK-BR3
Method in brief: as §1

IGROV-ET = assay: as above; conditions: for GI50: read-out: GI50 IGROV-ET; for CC50: read-out: LC50 IGROV-ET; for IC (TGI): read-out: TGI IGROV-ET
Method in brief: as §1

[1] = LOVO-DOX, SRB, 48 hours exposure
[2] = HELA-APL, SRB, 48 hours exposure
[3] = IGROV-ET, SRB, 48 hours exposure

## COC1=C(C)C(=O)C2=C(C1=O)[C@@H]1C3[C@@H]4SC[C@]5(NCCc6c5[nH]c5ccccc65)C(=O)OC[C@@H](c5c6c(c(C)c(OC(C)=O)c54)OCO6)N3[C@@H](C#N)[C@H](C2)N1C (stereo partly drawn) [compound 23]
LoVo; Homo sapiens, LoVo, 48 h
  GI50: 276 nM
  CC50: 983 nM
  IC (TGI): 522 nM
A-549; Homo sapiens, A549, 48 h
  GI50: 60.6 nM
  CC50: 785 nM
  IC (TGI): 211 nM
HT-29; Homo sapiens, HT-29, 48 h
  GI50: 51.2 nM
  CC50: 12900 nM
  IC (TGI): 215 nM
LoVo-Dox; Homo sapiens, 48 h
  GI50: 661 nM
  CC50: 12900 nM
  IC (TGI): 7460 nM
HeLa; Homo sapiens, HeLa, 48 h
  GI50: 38.2 nM
  CC50: 114 nM
  IC (TGI): 66 nM
HeLa-APL; Homo sapiens, 48 h
  GI50: 35.6 nM
  CC50: 102 nM
  IC (TGI): 60.3 nM
SK-MEL-28; Homo sapiens, SK-MEL-28, 48 h
  GI50: 247 nM
  CC50: 857 nM
  IC (TGI): 460 nM
IGROV-1; Homo sapiens, IGROV-1, 48 h
  GI50: 350 nM
  CC50: 1130 nM
  IC (TGI): 627 nM
LNCaP; Homo sapiens, LNCaP, 48 h
  GI50: 153 nM
  CC50: 657 nM
  IC (TGI): 318 nM
PANC-1; Homo sapiens, PANC-1, 48 h
  GI50: 509 nM
  CC50: 12900 nM
  IC (TGI): 1260 nM
DU-145; Homo sapiens, DU-145, 48 h
  GI50: 58.5 nM
  CC50: 4450 nM
  IC (TGI): 143 nM
K-562; Homo sapiens, K562, 48 h
  GI50: 20.3 nM
  CC50: 1400 nM
  IC (TGI): 73.3 nM
SK-BR-3; Homo sapiens, SK-BR-3, 48 h
  GI50: 13.1 nM
  CC50: 645 nM
  IC (TGI): 87.7 nM
IGROV-ET; Homo sapiens, 48 h
  GI50: 456 nM
  CC50: 1260 nM
  IC (TGI): 760 nM

## C=CCN1C2Cc3cc(C)c(OC)c(O)c3C1C1C3SCC(NC(=O)CC)C(=O)OCC(c4c5c(c(C)c(OC(C)=O)c43)OCO5)N1C2C#N (stereo not drawn) [compound 27]
LoVo; LOVO, SRB, 48 hours exposure
  TGI LOVO: 2.36E−07 Molar
  GI50: 80.4 nM
  CC50: 707 nM
A-549; A549, SRB, 48 hours exposure
  TGI A549: 2.06E−07 Molar
  GI50: 62.6 nM
  CC50: 1890 nM
HT-29; HT29, SRB, 48 hours exposure
  TGI HT29: 1.42E−06 Molar
  GI50: 75.6 nM
  CC50: 14200 nM
LoVo-Dox; [1]
  TGI LOVO-DOX: 1.42E−05 Molar
  GI50: 431 nM
  CC50: 14200 nM
HeLa; HELA, SRB, 48 hours exposure
  TGI HELA: 2.75E−07 Molar
  GI50: 97.8 nM
  CC50: 786 nM
HeLa-APL; [2]
  TGI HELA-APL: 3.04E−07 Molar
  GI50: 95.1 nM
  CC50: 951 nM
SK-MEL-28; MEL-28, SRB, 48 hours exposure
  TGI MEL-28: 1.34E−07 Molar
  GI50: 61.4 nM
  CC50: 594 nM
IGROV-1; IGROV, SRB, 48 hours exposure
  TGI IGROV: 1.02E−07 Molar
  GI50: 40.7 nM
  CC50: 1020 nM
LNCaP; LNCAP, SRB, 48 hours exposure
  TGI LNCAP: 6.46E−08 Molar
  GI50: 26.1 nM
  CC50: 261 nM
PANC-1; PANC-1, SRB, 48 hours exposure
  TGI PANC-1: 1.45E−06 Molar
  GI50: 92.8 nM
  CC50: 14200 nM
DU-145; DU145, SRB, 48 hours exposure
  TGI DU145: 8.48E−07 Molar
  GI50: 75.5 nM
  CC50: 14200 nM
K-562; K562, SRB, 48 hours exposure
  TGI K562: 5.66E−08 Molar
  GI50: 21.7 nM
  CC50: 206 nM
SK-BR-3; SK-BR3, SRB, 48 hours exposure
  TGI SK-BR3: 1.97E−07 Molar
  GI50: 55.8 nM
  CC50: 1050 nM
IGROV-ET; [3]
  TGI IGROV-ET: 3.87E−07 Molar
  GI50: 165 nM
  CC50: 915 nM

## C=CCOc1c(C)c2c(c3c1CC1[C@H]4c5c(cc(C)c(OC)c5O)C[C@@H]([C@H](C#N)N1[C@H]3CO)N4C)OCO2 (stereo partly drawn) [compound 2]
LoVo; Homo sapiens, LoVo, 48 h
  GI50: 533 nM
  CC50: 1920 nM
  IC (TGI): 1070 nM
A-549; Homo sapiens, A549, 48 h
  GI50: 633 nM
  CC50: 9110 nM
  IC (TGI): 1390 nM
HT-29; Homo sapiens, HT-29, 48 h
  GI50: 1060 nM
  CC50: 19200 nM
  IC (TGI): 14200 nM
LoVo-Dox; Homo sapiens, 48 h
  GI50: 924 nM
  CC50: 19200 nM
  IC (TGI): 19200 nM
HeLa; Homo sapiens, HeLa, 48 h
  GI50: 763 nM
  CC50: 9800 nM
  IC (TGI): 1450 nM
HeLa-APL; Homo sapiens, 48 h
  GI50: 479 nM
  CC50: 1490 nM
  IC (TGI): 844 nM
SK-MEL-28; Homo sapiens, SK-MEL-28, 48 h
  GI50: 598 nM
  CC50: 5310 nM
  IC (TGI): 1270 nM
IGROV-1; Homo sapiens, IGROV-1, 48 h
  GI50: 926 nM
  CC50: 18200 nM
  IC (TGI): 2260 nM
LNCaP; Homo sapiens, LNCaP, 48 h
  GI50: 592 nM
  CC50: 2760 nM
  IC (TGI): 1110 nM
PANC-1; Homo sapiens, PANC-1, 48 h
  GI50: 890 nM
  CC50: 19200 nM
  IC (TGI): 3260 nM
DU-145; Homo sapiens, DU-145, 48 h
  GI50: 897 nM
  CC50: 19200 nM
  IC (TGI): 3130 nM
K-562; Homo sapiens, K562, 48 h
  GI50: 516 nM
  CC50: 4790 nM
  IC (TGI): 1220 nM
SK-BR-3; Homo sapiens, SK-BR-3, 48 h
  GI50: 778 nM
  CC50: 19200 nM
  IC (TGI): 1750 nM
IGROV-ET; Homo sapiens, 48 h
  GI50: 1060 nM
  CC50: 19200 nM
  IC (TGI): 19200 nM
